Results taken from article PMC6680768, “Synthesis and Preclinical Evaluation of Radio-Iodinated GRPR/PSMA Bispecific Heterodimers for the Theranostics Application in Prostate Cancer” (Pharmaceutics, 2019).

Experiments:
PSMA [1] = biological target: T1, PSMA (Homo sapiens, UniProt Q04609); test: Binding inhibition of [^111In]In-PSMA-617 on PC-3pip cells, GRPRs blocked (IC50); settings: competitor 1 nM [^111In]In-PSMA-617, GRPRs blocked with 200 nM RM26, 4 °C, 5 h, non-iodinated heterodimers
T1 construct: host or cells: PC-3pip (PC-3 cells transfected with PSMA)
T1 sequence (Q04609 whole entry): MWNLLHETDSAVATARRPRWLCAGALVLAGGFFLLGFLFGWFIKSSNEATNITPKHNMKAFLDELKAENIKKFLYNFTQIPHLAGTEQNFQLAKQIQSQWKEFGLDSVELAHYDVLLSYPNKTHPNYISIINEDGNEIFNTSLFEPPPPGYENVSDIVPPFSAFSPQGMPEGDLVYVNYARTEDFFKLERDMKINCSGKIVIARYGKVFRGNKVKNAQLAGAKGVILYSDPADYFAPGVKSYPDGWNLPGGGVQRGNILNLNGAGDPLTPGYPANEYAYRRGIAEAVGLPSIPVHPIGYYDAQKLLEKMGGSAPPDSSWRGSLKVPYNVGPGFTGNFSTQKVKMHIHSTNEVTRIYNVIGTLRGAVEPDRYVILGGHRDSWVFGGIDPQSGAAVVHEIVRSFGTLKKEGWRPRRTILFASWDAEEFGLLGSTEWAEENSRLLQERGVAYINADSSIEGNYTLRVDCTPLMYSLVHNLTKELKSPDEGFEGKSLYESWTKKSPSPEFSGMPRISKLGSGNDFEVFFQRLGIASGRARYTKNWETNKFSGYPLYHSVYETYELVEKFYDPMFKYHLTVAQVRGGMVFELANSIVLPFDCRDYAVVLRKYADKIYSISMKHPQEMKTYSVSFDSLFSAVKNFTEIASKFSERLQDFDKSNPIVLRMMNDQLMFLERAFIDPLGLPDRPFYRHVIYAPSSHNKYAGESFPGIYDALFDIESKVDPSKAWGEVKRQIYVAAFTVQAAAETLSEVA
Description: Cells were incubated at 4 °C for 5 h. After incubation, the cells were detached with trypsin–EDTA and the activity in cell samples was measured. Data were plotted using nonlinear regression.

PSMA [2] = biological target: T1, PSMA; set-up: method as in PMID 25883127; settings: cited from earlier work
[3] = tested on: PC-3pip cells (GRPR and PSMA positive); test: Cellular retention of activity after interrupted incubation, PC-3pip cells; format: cell-based; settings: 24 h
Description: (§1) The cellular retention of activity after interrupted incubation was carried out on PC-3, LNCaP, and PC-3pip cells. A concentration of 20 nM of each radiolabeled heterodimer was added to the cells and the dishes were incubated at 4 °C for 2 h. The media was aspired, and the cells were further incubated with complete media at 37 °C. At predetermined time points, the media was collected, and the cells were detached with trypsin–EDTA and collected. The radioactivity content of each collected fraction was measured.

[4] = format: physicochemical
Description: The octanol–water distribution coefficient was determined as described earlier. Briefly, 500 µL of Milli-Q water and 500 µL of n-octanol were added in an Eppendorf tube containing radiolabeled peptide. The tube was vortexed for 2 min and centrifuged for 20 s. Fractions of each phase were collected and their activity was measured.

[5] = tested on: PC-3 cells (GRPR positive); test: Cellular retention of activity after interrupted incubation, PC-3 cells; format: cell-based; settings: 24 h of incubation, normalized to 0 h
Description: as §1

[6] = set-up: species or system Balb/c nu/nu mice; settings: mouse, in vivo
Description: (§2) The radioactivity uptake in organs was studied 1, 3, 24, and 72 h pi as described above.

[7] = tested on: PC-3pip (GRPR and PSMA positive) xenografts; set-up: species or system Balb/c nu/nu mice; settings: mouse, in vivo
Description: as §2

PSMA [8] = settings: LNCaP xenografts, 1 h pi, p < 0.05
Description: All in vivo experiments were carried out on BALB/c nu/nu mice provided by Scanbur A/S (Sweden). PC-3, LNCaP, and PC-3pip tumor xenografts were established by implanting 5 × 10^6 cells/mouse for PC-3 and PC-3pip xenografts, and 10 × 10^6 cells for LNCaP xenografts. The in vivo experiments were carried out when palpable tumors were observed. Animal weight at the moment of experiment was 20 ± 2 g, 21 ± 3 g, 14.5 ± 0.8 g, and average tumor size was 0.2 ± 0.1 g, 0.05 ± 0.04 g, 0.4 ± 0.1 g for PC-3, LNCaP, and PC-3pip models, respectively.
In vivo specificity for the radiolabeled heterodimers was tested on mice bearing PC-3 or LNCaP xenografts. The mice were injected with 40 pmol (30 KBq) of the radiolabeled heterodimer in 1% bovine serum albumin (BSA) in PBS. For the mice in the blocked group, 7.5 nmol of either unlabeled NOTA-PEG4-RM26 or PSMA-617 was added to the radiolabeled heterodimer in order to block GRPR in PC-3 xenografted mice or PSMA in LNCaP xenografted mice, respectively. Animals were sacrificed by heart punctures exsanguination after pre-injection of Ketalar–Rompun solution (10 mg/mL Ketalar and 1 mg/mL Rompun; 20 μL solution/gram of body weight). The mice were dissected 1 h post-injection (pi) and the organs of interest were collected. The activity uptake in organs was measured.

[9] = tested on: LNCaP cells (PSMA positive); test: Cellular retention of activity after interrupted incubation, LNCaP cells; format: cell-based; settings: 24 h
Description: as §1

| Compound | IC50 (PSMA [1]) | decrease of cell-associated activity [3] | logD [4] | difference in tumor activity uptake between non-blocked and blocked groups (in vivo specificity to PSMA) (PSMA [8]) | also measured |
| --- | --- | --- | --- | --- | --- |
| CC(C)C[C@H](NC(=O)C[C@H](O)[C@H](CC(C)C)NC(=O)[C@H](Cc1c[nH]cn1)NC(=O)CNC(=O)[C@@H](NC(=O)[C@H](C)NC(=O)[C@H](Cc1c[nH]c2ccccc12)NC(=O)[C@H](CCC(N)=O)NC(=O)[C@@H](Cc1ccccc1)NC(=O)CCOCCOCCNC(=O)[C@H](Cc1ccc(O)cc1)n1cc(COCCOCCC(=O)NC[C@H]2CC[C@H](C(=O)N[C@@H](Cc3ccc4ccccc4c3)C(=O)NCCCC[C@H](NC(=O)N[C@@H](CCC(=O)O)C(=O)O)C(=O)O)CC2)nn1)C(C)C)C(N)=O [BO530] | 98 ± 13 nM |  |  |  |  |
| CC(C)C[C@H](NC(=O)C[C@H](O)[C@H](CC(C)C)NC(=O)[C@H](Cc1c[nH]cn1)NC(=O)CNC(=O)[C@@H](NC(=O)[C@H](C)NC(=O)[C@H](Cc1c[nH]c2ccccc12)NC(=O)[C@H](CCC(N)=O)NC(=O)[C@@H](Cc1ccccc1)NC(=O)CCOCCOCCNC(=O)[C@H](Cc1ccc(O)cc1)n1cc(CCCCCCCC(=O)NC[C@H]2CC[C@H](C(=O)N[C@@H](Cc3ccc4ccccc4c3)C(=O)NCCCC[C@H](NC(=O)N[C@@H](CCC(=O)O)C(=O)O)C(=O)O)CC2)nn1)C(C)C)C(N)=O [BO535] | 100 ± 10 nM |  |  |  |  |
| O=C([O-])CN1CCN(CC(=O)[O-])CCN(CC(=O)NCC2CCC(C(=O)N[C@@H](Cc3ccc4ccccc4c3)C(=O)NCCCC[C@H](NC(=O)N[C@@H](CCC(=O)O)C(=O)O)C(=O)O)CC2)CCN(CC(=O)[O-])CC1.[177Lu+3] (some centres unmarked) [^177Lu-PSMA-617] |  |  |  |  | initial uptake in kidneys versus tumors (PSMA [2]): at least 10 fold |
| CC(C)C[C@H](NC(=O)C[C@H](O)[C@H](CC(C)C)NC(=O)[C@H](Cc1c[nH]cn1)NC(=O)CNC(=O)[C@@H](NC(=O)[C@H](C)NC(=O)[C@H](Cc1c[nH]c2ccccc12)NC(=O)[C@H](CCC(N)=O)NC(=O)[C@@H](Cc1ccccc1)NC(=O)CCOCCOCCNC(=O)[C@H](Cc1ccc(O)c(I)c1)n1cc(COCCOCCC(=O)NC[C@H]2CC[C@H](C(=O)N[C@@H](Cc3ccc4ccccc4c3)C(=O)NCCCC[C@H](NC(=O)N[C@@H](CCC(=O)O)C(=O)O)C(=O)O)CC2)nn1)C(C)C)C(N)=O [[^125I]I-BO530] |  | 20% | -0.52 | demonstrated significant difference | cell-associated activity [5]: 14% ± 2%; tissue uptake at 24 h [6]: < 1 %ID/g; area under the curve (AUC), kidneys versus tumors [7]: more than two-fold higher; area under the curve (AUC), tumor versus blood [7]: 10 fold; cell associated activity from initial [9]: 60% |
| CC(C)C[C@H](NC(=O)C[C@H](O)[C@H](CC(C)C)NC(=O)[C@H](Cc1c[nH]cn1)NC(=O)CNC(=O)[C@@H](NC(=O)[C@H](C)NC(=O)[C@H](Cc1c[nH]c2ccccc12)NC(=O)[C@H](CCC(N)=O)NC(=O)[C@@H](Cc1ccccc1)NC(=O)CCOCCOCCNC(=O)[C@H](Cc1ccc(O)c(I)c1)n1cc(CCCCCCCC(=O)NC[C@H]2CC[C@H](C(=O)N[C@@H](Cc3ccc4ccccc4c3)C(=O)NCCCC[C@H](NC(=O)N[C@@H](CCC(=O)O)C(=O)O)C(=O)O)CC2)nn1)C(C)C)C(N)=O [[^125I]I-BO535] |  | 35% | 1.07 | failed to demonstrate in vivo specificity |  |
